The target in assay [1] is T1, VPS35 (Mus musculus, UniProt Q9EQH3+Q9QZ88). The assay can be described thus: VPS35 levels in Neuro2a cells by Western blot (screening of amino guanidine hydrazones). The assay is classed as cell-based. Further details: endogenous in cells; host or cells: Neuro2a. The note with it: 48 hours. The method, then: To functionally screen the majority of synthetized amino guanidine hydrazones of the invention and determine their effects on the retromer complex, we incubated Neuro2a cells with each synthetized molecule at the concentration of 10 μM.
The test was executed in triplicate for each tested compound of the invention, cells lysates were established after 48 hours' incubation, and levels of VPS35 were normalized on the housekeeping gene β-Actin by Western blot. We observed a preliminary SAR among the compounds.
Fold changes are calculated over normalized VPS35 levels measured in vehicle-treated cells.
Neuro2a cells were seeded on 12 wells multiwell at the concentration of 100 000 cells/well. Cells were incubated with each compound, including the standard R55, at 10 μM for 48 hours. Cells were then washed in PBS 1× and lysed in a buffer containing Tris-HCl 10 mM pH8, EDTA 1 mM pH8, NaCl 100 mM, NP40 1%, with protease inhibitor cocktail (Sigma) 1×. Using a cell scraper total lysates were collected from each well, quantified with BCA (BCA protein assay, Thermofisher). Five μg were resolved on precast 10% acrylamide gel (Biorad). Proteins were transferred to a PVDF membrane (Millipore) and western blot were performed using the following antibodies: goat αVPS35 (1:1000), mouse α-βActin (1:10000). Detection of proteins was obtained by a chemiluminescence detection kit (PerkinElmer).
(In western blotting, separated proteins are transferred to a membrane and probed.)

Assay [2] has as its system G93A mice. The assay can be described thus: Motor neuron counts in ventral horn of lumbar spinal cord of G93A mice. The class given is in vivo, mouse. As to conditions: 10 mg/kg daily, day 100. The method, then: Mice were sacrificed at day 100, and lumbar SCs assayed for studying MNs cell morphology and numbers. We initially scored NeuN^+ neurons in the ventral horn of the SC to monitor bona fide motor neurons.
Sections from mice (frozen cryo sections) or glass covers containing cells were washed three times in PBS 1× (Lonza, 5 min each), and incubated in the following blocking mix: PBS 1×/FBS 10% (Invitrogen), BSA 1 mg/mL (Sigma), TritonX100 0.1% (Sigma), for 1 h at room temperature. Antibodies were diluted in blocking mix and incubated at +4° C. overnight according manufacturer's instructions. The following day, sections were rinsed in PBS and fluorescent secondary antibodies—i.e. never deriving from the species from which the primary antibodies are derived—(Alexafluor conjugated) diluted in blocking mix, were used according to the manufacturer's instructions. Slides were incubated in Hoechst 33342 (Sigma) for nuclei counterstaining. When necessary, we performed antigens retrieval by boiling samples in 10 mM sodium citrate (pH 6) for 5 min. […]
Mice were maintained under pathogen-free conditions at San Raffaele Hospital mouse facility (Milan, Italy). […] Animal cohort numbers were determined by power analysis based on preliminary results.

The target in assay [3] is T1, VPS35. The assay can be described thus: VPS35 western blot in spinal cord extracts of G93A mice. The class given is in vivo. As to conditions: 10 mg/kg, day 100. The method, then: Lumbar spinal cords were dissected from saline perfused mice and rapidly homogenized in the following lysis buffer: Tris-HCl 10 mM pH 8, EDTA pH 8 1 mM, NaCl 100 mM, NP40 1% and protease inhibitor cocktail (Sigma). Protein extracts were obtained using a tight-fitting glass Potter tissue grinder (1 ml; Wheaton) and then sonicated at a frequency of 20 kHz (10 times-1s). Protein lysates from cells cultures were obtained from plates receiving PBS1× washing and subsequently the lysis buffer followed by sonication. Protein concentrations were measured by BCA protein assay kit (Thermofisher) according to the manufacturer's recommendations. Ten μg of protein extract was loaded on 10% Mini-PROTEAN TGX Stain-Free precast gels for PAGE (Bio-Rad). Gel electrophoresis was performed at 100 V for 2 hours. Gels were transferred on Immobilon®-P PVDF membrane according to the manufacturer's instructions (Millipore). Blots were blocked in 5% BSA in Tris buffered saline plus 0.1% Tween-20 (TBS-T) for 1 hour before receiving primary antibodies: goat α-VPS35 1:800 (ab10099, Abcam); rabbit α-VPS26b 1:1000 (15915-1-AP, ProteinTech); rabbit α-VPS29 1:1000 (ab236796 Abcam); mouse α-βActin 1:25000 (Sigma); mouse α-Golgin97 1:1000 (Invitrogen); mouse α-Ubiquitin 1:500 (Merk) overnight at 4° C. on shaker. […] Quantifications were done using the Image Lab 6.0.1 software (Bio-Rad).

Entries after “also recorded” stand apart in the source; their conditions may differ.

On to `N=C(N)NN=Cc1cccc(C=NNC(=N)N)c1` [Compound 2a, 1,3-Bis-amino guanidine phenyl hydrazone], for which, in assay [1] (10 μM, independent cultures n=3), the “Mean fold changes (VPS35 levels normalized on β-Actin, over vehicle-treated cells)” value stood at 1.951. Also, the “VPS35 levels (in words)” value in assay [1] (compounds at 10 μM) was “able to consistently increase VPS35 levels with a limited variability among replicates; also recorded: increased”. In assay [2], the “numbers of NeuN+ motor neurons in the ventral horn” value is reported as “significantly higher numbers of motor neurons than vehicle-treated G93A mice”. The “VPS35 levels in SC extracts (WB)” value in assay [3] is “increase VPS35 and VPS26b levels”.

The values above are taken from US20220213030A1, “AMINOGUANIDINE HYDRAZONES AS RETROMER STABILIZERS USEFUL FOR TREATING NEUROLOGICAL DISEASES” (OSPEDALE SAN RAFFAELE SRL, priority 2019, published 2022).
